Measurements: paper PMC11873566 (Acta Pharmaceutica Sinica. B, 2024)

Target: alpha-enolase (ENO1) (Homo sapiens, UniProt P06733)
Experiment: MST with NT-647-NHS labelled recombinant ENO1
Format: binding

Chain of alpha-enolase (ENO1) (P06733 2-434): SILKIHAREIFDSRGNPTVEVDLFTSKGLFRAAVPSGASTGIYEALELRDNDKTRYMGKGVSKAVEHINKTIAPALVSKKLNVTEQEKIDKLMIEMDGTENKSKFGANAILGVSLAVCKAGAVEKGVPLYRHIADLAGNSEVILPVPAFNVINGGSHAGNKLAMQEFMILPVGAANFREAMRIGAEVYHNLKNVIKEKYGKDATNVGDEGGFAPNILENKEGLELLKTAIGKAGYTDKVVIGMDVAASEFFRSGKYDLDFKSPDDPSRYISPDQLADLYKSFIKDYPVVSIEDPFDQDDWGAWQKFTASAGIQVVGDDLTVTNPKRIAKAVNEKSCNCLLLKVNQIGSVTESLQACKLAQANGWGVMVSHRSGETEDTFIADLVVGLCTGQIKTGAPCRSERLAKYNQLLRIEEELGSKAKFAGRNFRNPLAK

## O=c1cc(-c2ccccc2)oc2cc(O)cc(O)c12 [compound 1, chrysin]
  Kd: 15 µM
